Results from patent publication EP0083683A1, “Method of preparing 1,4-bis(substituted-amino)-5,8-dihydroxyanthraquinones and pharmaceutical compositions containing them” (AMERICAN CYANAMID COMPANY, priority 1981, dated 1983).

Experiments:
[1] = tested on: lymphocytic leukemia P388; assay: Lymphocytic leukemia P388 test; assay type: in vivo, DBA/2 mice
Procedure: The animals used are DBA/2 mice all of one sex, weighing a minimum of 17 g. and all within a 3 g. weight range. There are 5 or 6 animals per test group. The tumor transplant is by intraperitoneal injection of 0.5 ml. of dilute ascitic fluid containing 10^6 cells of lymphocytic leukemia P388. The test compounds are administered intraperitoneally on days one, 5 and 9 (relative to tumor inoculation) at various doses. […] The median survival time and the ratio of survival time for treated (T)/control (C) animals are calculated. The positive control compound is 5-fluorouracil given as a 60 mg./kg. injection. The results of this test with representative compounds of the present invention appear in Table I. The criterion for efficacy is T/C x 100>125%.

[2] = tested on: melanotic melanoma B16; assay: Melanotic Melanoma B16 test; assay type: in vivo, BDF1 mice
Procedure: The animals used are BDF1 mice, all of the same sex, weighing a minimum of 17 g. and all within a 3 g. weight range. There are normally 10 animals per test group. A one-gram portion of melanotic melanoma B16 tumor is homogenized in 10 ml. of cold balanced salt solution and a 0.5 ml. aliquot of the homogenate is implanted intraperitoneally into each of the test mice. The test compounds are administered intraperitoneally on days one through 9 (relative to tumor inoculation) at various doses. The animals are weighed and survivors are recorded on a regular basis for 60 days. The median survival time and the ratio of survival time for treated (T)/control (C) animals are calculated. The positive control compound is 5-fluorouracil given as a 20 mg./kg. injection. The criterion for efficacy is T/C x 100 >125%.

[3] = 1st test, positive control, dose 60 mg./kg.
[4] = 2nd test, positive control, dose 60 mg./kg.
[5] = positive control, dose 20.0 mg./kg.
[6] = 1st test, dose 0.78 mg./kg. intraperitoneally on days 1, 5 and 9
[7] = 1st test, dose 1.56 mg./kg. intraperitoneally on days 1, 5 and 9
[8] = 1st test, dose 3.12 mg./kg. intraperitoneally on days 1, 5 and 9
[9] = 1st test, dose 6.25 mg./kg. intraperitoneally on days 1, 5 and 9
[10] = 2nd test, dose 0.10 mg./kg. intraperitoneally on days 1, 5 and 9
[11] = 2nd test, dose 0.19 mg./kg. intraperitoneally on days 1, 5 and 9
[12] = 2nd test, dose 0.39 mg./kg. intraperitoneally on days 1, 5 and 9
[13] = 2nd test, dose 0.78 mg./kg. intraperitoneally on days 1, 5 and 9
[14] = 2nd test, dose 1.56 mg./kg. intraperitoneally on days 1, 5 and 9
[15] = 2nd test, dose 3.12 mg./kg. intraperitoneally on days 1, 5 and 9
[16] = 2nd test, dose 6.25 mg./kg. intraperitoneally on days 1, 5 and 9
[17] = dose 0.09 mg./kg. intraperitoneally on days one through 9
[18] = dose 0.19 mg./kg. intraperitoneally on days one through 9
[19] = dose 0.37 mg./kg. intraperitoneally on days one through 9
[20] = dose 0.75 mg./kg. intraperitoneally on days one through 9
[21] = dose 1.5 mg./kg. intraperitoneally on days one through 9

O=c1[nH]cc(F)c(=O)[nH]1 [5-Fluorouracil, 5-fluorouracil, reference compound]
Median Survival Time [1, 3]: 21.0 days | T/C x 100 (Percent) [1, 3]: 191% | Median Survival Time [1, 4]: 21.5 days | T/C x 100 (Percent) [1, 4]: 195% | Median Survival Time [2, 5]: 26.0 days | T/C x 100 (Percent) [2, 5]: 137%

O=C1c2c(O)ccc(O)c2C(=O)c2c(NCCN3CCOC3)ccc(NCCN3CCOC3)c21 [l,4-Dihydroxy-5,8-bis[[2-(3-oxazolidinyl)ethyl]amino]-anthraquinone]
Median Survival Time [1, 6]: 23.0 days | T/C x 100 (Percent) [1, 6]: 209% | Median Survival Time [1, 7]: 23.5 days | T/C x 100 (Percent) [1, 7]: 214% | "Cures" = number of survivors/total at 60 days [1, 8]: 1/6 | Median Survival Time [1, 8]: 29.5 days | T/C x 100 (Percent) [1, 8]: 268% | "Cures" = number of survivors/total at 60 days [1, 9]: 2/6 | Median Survival Time [1, 9]: >30.0 days | T/C x 100 (Percent) [1, 9]: >273% | Median Survival Time [1, 10]: 19.5 days | T/C x 100 (Percent) [1, 10]: 177% | Median Survival Time [1, 11]: 23.5 days | T/C x 100 (Percent) [1, 11]: 214% | Median Survival Time [1, 12]: 23.5 days | T/C x 100 (Percent) [1, 12]: 214% | Median Survival Time [1, 13]: 22.0 days | T/C x 100 (Percent) [1, 13]: 200% | "Cures" = number of survivors/total at 60 days [1, 14]: 1/6 | Median Survival Time [1, 14]: 30.0 days | T/C x 100 (Percent) [1, 14]: 273% | Median Survival Time [1, 15]: >30.0 days | T/C x 100 (Percent) [1, 15]: >273% | Median Survival Time [1, 16]: 14.0 days | T/C x 100 (Percent) [1, 16]: 127% | Median Survival Time [2, 17]: 29.0 days | T/C x 100 (Percent) [2, 17]: 153% | Median Survival Time [2, 18]: 31.0 days | T/C x 100 (Percent) [2, 18]: 163% | Median Survival Time [2, 19]: 49.5 days | T/C x 100 (Percent) [2, 19]: 260% | Median Survival Time [2, 20]: 46.0 days | T/C x 100 (Percent) [2, 20]: 242% | Median Survival Time [2, 21]: 55.5 days | T/C x 100 (Percent) [2, 21]: 292%
